According to patent publication US9925227B2, “Composition for treating obesity and method of using the same” (POLIFENOLES NATURALES S.L., priority 2006, dated 2018):

Experiment: Energy expenditure by indirect calorimetry, dose-response clinical trial
Format: in vivo, human
Conditions: for Energy Expenditure: obese non-diabetic females with NAFLD; for Total Energy Expenditure, From (start value): baseline; for Total Energy Expenditure, to (end value): end of trial
Text: Obese subjects diagnosed with NAFLD and with apparently healthy liver (HL) were matched in pairs based on age, body weight and body fat mass and were randomly divided into Experimental NAFLD group (n=36), Placebo NAFLD (n=36), Experimental HL (n=19) and Placebo-HL group (n=19). Subjects were randomly assigned, in equal numbers, to the phytomedicine experimental groups and the Placebo control group, using the Simple Randomization Procedure. Their daily dietary intake was restricted to 1800±100 kcals, of which 50±5% was in the form of carbohydrates, 30±5% from protein, and 20±5% from fat. Subjects were also instructed to consume all the foods and beverages designated by dieticians and provided by the Institute, and to eat no other food or high calories beverages. Patients were directed to take Experimental Sample and/or Placebo three times a day before meals. During the clinical phase, subjects were required to visit a designated hospital three times a week for physiological and biochemical analysis. Institute provided all foods and beverages by designated dieticians and labeled as B, L, and D for breakfast, lunch and dinner, respectively.
Measurements of Fat Oxidation by Indirect Calorimetry
Energy expenditure (EE) and substrate oxidations were measured by indirect calorimetry as described previously (Ranneries et al., 1998). Oxygen was measured with an electrochemical oxygen sensor, and carbon dioxide was measured by an infrared carbon dioxide sensor (Ametec Carbon Dioxide Analyzer). Calculations of EE and substrate oxidation rates were performed as previously described (Astrup et al., 1991). Protein oxidation was assumed to be constant and amounting to 15% of EE. The error of calculating EE by omitting the exact correction from urinary nitrogen was negligible and impossible to estimate during such a short period of time. The reliability was assessed by the coefficient of variation on resting energy expenditure repeated every week.
This effect was clearly dose-dependent phenomenon. […] Based on our dose-response trial, the optimum dose of Experimental Sample was established as 600 mg per day, which was used in further clinical trials.

Fucoxanthin
increase in daily energy expenditure rate (25 mg fucoxanthin alone): 1152 ± 290 kJ/day
Energy Expenditure (Fucoxanthin 10 mg per day, 2 weeks): 5.69 ± 0.21 kJ/min
Energy Expenditure (Fucoxanthin 10 mg per day, 5 weeks): 5.93 ± 0.15 kJ/min
Energy Expenditure (Fucoxanthin 10 mg per day, 10 weeks): 5.69 ± 0.21 kJ/min
Energy Expenditure (Fucoxanthin 10 mg per day, 16 weeks): 5.98 ± 0.18 kJ/min
Energy Expenditure (Fucoxanthin 10 mg per day, Baseline): 5.82 ± 0.18 kJ/min
Total Energy Expenditure, From (start value) (Fucoxanthin 10 mg per day): 8381 kJ/24 h
Total Energy Expenditure, to (end value) (Fucoxanthin 10 mg per day): 8611 kJ/24 h
Change in Total Energy Expenditure, Net (Fucoxanthin 10 mg per day, p < NS vs placebo): Net 230 ± 147 kJ/24 h
Energy Expenditure (Fucoxanthin 15 mg per day, 2 weeks): 5.89 ± 0.14 kJ/min
Energy Expenditure (Fucoxanthin 15 mg per day, 5 weeks): 5.98 ± 0.17 kJ/min
Energy Expenditure (Fucoxanthin 15 mg per day, 10 weeks): 6.11 ± 0.21 kJ/min
Energy Expenditure (Fucoxanthin 15 mg per day, 16 weeks): 6.39 ± 0.17 kJ/min
Energy Expenditure (Fucoxanthin 15 mg per day, Baseline): 5.85 ± 0.27 kJ/min
Total Energy Expenditure, From (start value) (Fucoxanthin 15 mg per day): 8424 kJ/24 h
Total Energy Expenditure, to (end value) (Fucoxanthin 15 mg per day): 9202 kJ/24 h
Change in Total Energy Expenditure, Net (Fucoxanthin 15 mg per day, p < 0.05 vs placebo): Net 778 ± 260 kJ/24 h
Energy Expenditure (Fucoxanthin 25 mg per day, 2 weeks): 6.02 ± 0.23 kJ/min
Energy Expenditure (Fucoxanthin 25 mg per day, 5 weeks): 5.92 ± 0.27 kJ/min
Energy Expenditure (Fucoxanthin 25 mg per day, 10 weeks): 6.29 ± 0.31 kJ/min
Energy Expenditure (Fucoxanthin 25 mg per day, 16 weeks): 6.72 ± 0.22 kJ/min
Energy Expenditure (Fucoxanthin 25 mg per day, Baseline): 5.92 ± 0.16 kJ/min
Total Energy Expenditure, From (start value) (Fucoxanthin 25 mg per day): 8525 kJ/24 h
Total Energy Expenditure, to (end value) (Fucoxanthin 25 mg per day): 9677 kJ/24 h
Change in Total Energy Expenditure, Net (Fucoxanthin 25 mg per day, p < 0.05 vs placebo): Net 1152 ± 290 kJ/24 h
Energy Expenditure (Fucoxanthin 50 mg per day, 2 weeks): 5.91 ± 0.31 kJ/min
Energy Expenditure (Fucoxanthin 50 mg per day, 5 weeks): 6.32 ± 0.22 kJ/min
Energy Expenditure (Fucoxanthin 50 mg per day, 10 weeks): 6.92 ± 0.31 kJ/min
Energy Expenditure (Fucoxanthin 50 mg per day, 16 weeks): 7.37 ± 0.35 kJ/min
Energy Expenditure (Fucoxanthin 50 mg per day, Baseline): 6.04 ± 0.24 kJ/min
Total Energy Expenditure, to (end value) (Fucoxanthin 50 mg per day): 10613, kJ/24 h
Change in Total Energy Expenditure, Net (Fucoxanthin 50 mg per day, p < 0.001 vs placebo): Net 1915 ± 246 kJ/24 h
